Results reported in patent publication US11376228B2 (Genifarm Laboratories Inc, priority 2018, dated 2022).
pIC50: −log10 of the molar value.

What was measured:
[1] = system: human prostate cancer cells PC3; assay: MTT assay, proliferation of human prostate cancer cells PC3; format: cell-based; conditions: for pIC50: Homo sapiens, PC3, MTT, 48 h, 0-32 μM, read-out: IC50 on the proliferation of human prostate cancer cells PC3; for inhibitory effects on human prostate cancer cells PC3 (in words): PC3, summary of Table 4; for effect compared with control gossypol I-A9, PC3: PC3, versus gossypol I-A9
[2] = system: human gastric cancer cells MKN45; assay: MTT assay, proliferation of human gastric cancer cells MKN45; format: cell-based; conditions: for pIC50: Homo sapiens, MKN-45, MKN45, MTT, 48 h, 0-60 μM, read-out: IC50 on the proliferation of human gastric cancer cells MKN45; for inhibitory effects on human gastric cancer cells MKN45 (in words): MKN45, summary of Table 1; for effect compared with control gossypol I-A9, MKN45: MKN45, versus gossypol I-A9
Experimental: The original culture medium for human gastric cancer cells MKN45 was removed, and human gastric cancer cells MKN45 were rinsed with 2 mL of phosphate buffer saline (PBS), digested with 0.5 mL of pancreatic enzyme for 3 min. 2 mL of culture medium was added to the cells and the mixture was transferred to a centrifuge tube. The mixture was centrifuged (200 g) for 5 min. The supernatant was removed. 2 mL of culture medium was sprayed five times to the remaining solution. 0.5 mL of cell suspension was transferred to an Eppendorf (EP) tube and the cells were counted. The cells were cultured on a 96-well plate, each well having 2000 cells, 3 wells for each compound. The numbers of the required cells and wells and the amount of culture medium were calculated. The cells were diluted by the culture medium. 100 μL culture medium was added to each well and were evenly dispersed, each well containing 2000 cells. The cells were transferred to the wells using a pipette, and cultured in an incubator.
(2) Adding Compounds to Culture Medium
The original culture medium was discarded, and the mother liquor of each compound was diluted to final concentrations of 0, 5, 15, 30, 45 and 60 μM, respectively. Each diluent was uniformized. To each head of a multichannel pipette, 100 μL of the diluent was introduced. Three heads were employed. The diluents were added to 3 marked wells (the cells were undamaged) of a tilted 96-well plate, respectively. Different concentrations of diluents were added to three different marked wells and evenly mixed by alternately sucking and blowing with the multichannel pipette 3 times. The 96-well plate was shaken slightly twice, and cultured in a CO2 incubator.
The cells were cultured in different compounds for 48 h and were then detected. Specifically, a clean bench was turned on for 15 min, and phosphate buffer saline (PBS) was pre-heated in a warm water bath for 15 min. MTT was taken out of a refrigerator at −20 degrees, protected from light and thawed (MTT stock solution was 5 mg/mL). MTT and a culture medium were mixed evenly in a V-shaped groove to yield a mixture comprising 500 μg/mL MTT and a culture medium (a volume ratio thereof being 1:10). 100 μL of the prepared MTT mixture was added to each well of the 96-well plate using the multichannel pipette, and then incubated at 37° C. for an appropriate time (1 h), thereby reducing the MTT to formazan (purple crystals formed in the cells under a microscope, which were different in medicated cells and unmedicated cells). The upper liquid was removed with a white pipette tip attached to a vacuum pump. For each concentration of the compounds, 3 pipette tips were employed. After the incubation, the MTT mixture was discarded, and then 100 μL of DMSO was added to each well using the multichannel pipette. The 96-well plate was shaken in a shaker for 10 min (until the purple crystals were dissolved in the cells under the microscope).
The absorbance value of the cells was measured at a wavelength of 550 nm with a microplate reader. The survival rate of the cells treated with different concentrations of compounds was calculated to make a scatter plot. The IC50 results of each compound on the proliferation of human gastric cancer cells MKN45 were shown in Table 1, where Gossypol I-A9 is a control sample.

Row | pIC50 [1] | pIC50 [2] | Compound | inhibitory effects on human prostate cancer cells PC3 (in words) [1] | effect compared with control gossypol I-A9, PC3 [1] | inhibitory effects on human gastric cancer cells MKN45 (in words) [2] | effect compared with control gossypol I-A9, MKN45 [2]
1 | 5.55 |  | COc1cc(OC)c(Cc2c(C=O)c(O)c(O)c(C)c2-c2ccc([N+](=O)[O-])cc2)c(OC)c1 [Compound I-42, 4,5-dihydroxy-6-methyl-4′-nitro-2-(2,4,6-trimethoxybenzyl)-(1,1′-biphenyl)-3-carbaldehyde] | significant inhibitory effects | superior than the gossypol I-A9 |  | 
2 | 5.54 |  | CCc1c(O)c(O)c(C=O)c(Cc2c(OC)cc(OC)cc2OC)c1-c1ccccc1 [Compound I-44] | significant inhibitory effects | superior than the gossypol I-A9 |  | 
3 | 5.19 |  | Cc1c(O)c(O)c(C=O)c(COCc2ccccc2)c1-c1ccc(C(C)(C)C)cc1 [Compound I-46] | significant inhibitory effects | superior than the gossypol I-A9 |  | 
4 | 5.09 |  | Cc1c(O)c(O)c(C=O)c(COCc2ccccc2)c1-c1cccc2ccccc12 [Compound I-47] | significant inhibitory effects | superior than the gossypol I-A9 |  | 
5 | 4.65 |  | Cc1c(O)c(O)c(C=O)c(COCc2ccccc2)c1-c1ccsc1 [Compound I-48] | significant inhibitory effects |  |  | 
6 | 5.54 | 4.91 | CC(C)c1c(O)c(O)c(C=O)c2c1C(c1ccccc1)CC2 (centres unmarked) [Compound I-50, 5,6-dihydroxy-7-isopropyl-1-phenyl-2,3-dihydro-1H-indene-4-carbaldehyde] | significant inhibitory effects | superior than the gossypol I-A9 | significant inhibitory effects | better than the control gossypol I-A9
7 | 5.28 |  | COc1cc(OC)c(Cc2cc(C(C)C)c(O)c(O)c2C=O)c(OC)c1 [Compound I-51] | significant inhibitory effects | superior than the gossypol I-A9 |  | 
8 | 5.18 |  | CC(C)c1cc(COCc2ccccc2)c(C=O)c(O)c1O [Compound I-53] | significant inhibitory effects | superior than the gossypol I-A9 |  | 
9 | 5.69 |  | CC(C)c1c(O)c(O)c(C=O)c(COCc2ccccc2)c1-c1ccccc1 [Compound I-55] | significant inhibitory effects | superior than the gossypol I-A9 |  | 
10 | 5.46 |  | COc1cc(OC)c(Cc2c(C=O)c(O)c(O)c(C)c2-c2ccco2)c(OC)c1 [I-A6, 3-(furan-2-yl)-5,6-dihydroxy-4-methyl-2-(2,4,6-trimethoxybenzyl) benzaldehyde] | significant inhibitory effects | superior than the gossypol I-A9 |  | 
11 | 5.63 |  | Cc1c(O)c(O)c(C=O)c(COCc2ccccc2)c1Br [I-A8, 2-((benzyloxy)methyl)-3-bromo-5,6-dihydroxy-4-methylbenzaldehyde] | significant inhibitory effects | superior than the gossypol I-A9 |  | 

The remaining lines, values behind:

Row | Compound | pIC50 [1] | pIC50 [2] | inhibitory effects on human prostate cancer cells PC3 (in words) [1] | effect compared with control gossypol I-A9, PC3 [1] | inhibitory effects on human gastric cancer cells MKN45 (in words) [2] | effect compared with control gossypol I-A9, MKN45 [2]
12 | Cc1c(O)c(O)c(C=O)c2c1C(c1ccc(C(F)(F)F)cc1)CC2 (centres unmarked) [Compound I-5] | 5.15 |  | significant inhibitory effects | superior than the gossypol I-A9 |  | 
13 | Cc1cc(COCc2ccccc2)c(C=O)c(O)c1O [Compound I-21, 6-((benzyloxy)methyl)-2,3-dihydroxy-4-methylbenzaldehyde] | 5.09 |  | significant inhibitory effects | superior than the gossypol I-A9 |  | 
14 | Cc1c(O)c(O)c(C=O)c(CC=C(c2ccccc2)c2ccccc2)c1-c1ccccc1 [Compound I-24] | 5.14 |  | significant inhibitory effects | superior than the gossypol I-A9 |  | 
15 | Cc1c(O)c(O)c(C=O)c(COCc2ccccc2)c1-c1ccccc1 [Compound I-25] | 5.08 |  | significant inhibitory effects | superior than the gossypol I-A9 |  | 
16 | Cc1c(O)c(O)c(C=O)c(COCc2ccccc2)c1-c1ccc(F)cc1 [Compound I-26] | 5.00 | 4.78 | significant inhibitory effects |  | significant inhibitory effects | 
17 | CCc1cc(COCc2ccccc2)c(C=O)c(O)c1O [Compound I-31] | 5.14 |  | significant inhibitory effects | superior than the gossypol I-A9 |  | 
18 | Cc1c(C)c(COCc2ccccc2)c(C=O)c(O)c1O [Compound I-39] |  | 5.18 |  |  | significant inhibitory effects | better than the control gossypol I-A9
19 | COc1cc(OC)c(Cc2c(C=O)c(O)c(O)c(C)c2-c2ccc(Br)cc2)c(OC)c1 [Compound I-41] | 5.75 |  | significant inhibitory effects | superior than the gossypol I-A9 |  | 
20 | Cc1cc(COCc2ccccc2)c(CO)c(O)c1O [Compound I-96] |  |  |  |  | significant inhibitory effects | 
21 | COC(=O)c1c(COCc2ccc(OC)cc2)cc(C)c(OC)c1OC [Compound I-100] |  |  | significant inhibitory effects |  |  | 
